Results on six molecules are retold here after ChEMBL document CHEMBL1131387, “Dimers of 5HT1 ligands preferentially bind to 5HT1B/1D receptor subtypes” (Bioorg Med Chem Lett, 1998).

The target in test [1] is T1, 5-hydroxytryptamine receptor 1B (Homo sapiens, UniProt P28222). As to the kind of experiment: Binding affinity was evaluated at human recombinant 5-hydroxytryptamine 1B receptor using [3H]5-CT as radioligand.
Test [2] concerns the target T1, 5-hydroxytryptamine receptor 1B. As to the kind of experiment: The intrinsic activity was evaluated for its ability to inhibit forskolin-stimulated c-AMP formation mediated by cloned 5-hydroxytryptamine 1B receptor in CHO cell line; Antagonist. It is filed as functional, cell-based.
For test [3] the target is unchanged. The test is described as follows: The intrinsic activity was evaluated for its ability to inhibit forskolin-stimulated c-AMP formation mediated by cloned 5-hydroxytryptamine 1B receptor in CHO cell line; Partial Agonist. It is filed as functional, cell-based.
Test [4] has as its target T2, 5-hydroxytryptamine receptor 1A (Homo sapiens, UniProt P08908).
T2 sequence (P08908 whole entry): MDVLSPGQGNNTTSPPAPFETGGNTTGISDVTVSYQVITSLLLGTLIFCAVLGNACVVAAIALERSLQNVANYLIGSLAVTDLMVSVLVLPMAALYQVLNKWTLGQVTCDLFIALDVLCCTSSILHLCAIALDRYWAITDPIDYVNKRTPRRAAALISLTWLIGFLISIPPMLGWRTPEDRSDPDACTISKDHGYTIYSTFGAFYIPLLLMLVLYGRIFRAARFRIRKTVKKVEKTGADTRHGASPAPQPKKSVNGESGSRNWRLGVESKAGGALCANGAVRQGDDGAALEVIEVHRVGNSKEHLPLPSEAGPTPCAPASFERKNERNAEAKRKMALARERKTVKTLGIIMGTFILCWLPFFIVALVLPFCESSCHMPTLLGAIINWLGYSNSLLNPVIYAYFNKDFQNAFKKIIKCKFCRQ
The test is described as follows: Binding affinity was evaluated at human recombinant 5-hydroxytryptamine 1A receptor using [3H]8-OH-DPAT as radioligand.

Test [5] deals with 5-hydroxytryptamine receptor 1D (Homo sapiens, UniProt P28221). The test is described as follows: Binding affinity was evaluated at human recombinant 5-hydroxytryptamine 1D receptor using [3H]-5-CT as radioligand.
5-hydroxytryptamine receptor 1D, sequence (P28221 whole entry): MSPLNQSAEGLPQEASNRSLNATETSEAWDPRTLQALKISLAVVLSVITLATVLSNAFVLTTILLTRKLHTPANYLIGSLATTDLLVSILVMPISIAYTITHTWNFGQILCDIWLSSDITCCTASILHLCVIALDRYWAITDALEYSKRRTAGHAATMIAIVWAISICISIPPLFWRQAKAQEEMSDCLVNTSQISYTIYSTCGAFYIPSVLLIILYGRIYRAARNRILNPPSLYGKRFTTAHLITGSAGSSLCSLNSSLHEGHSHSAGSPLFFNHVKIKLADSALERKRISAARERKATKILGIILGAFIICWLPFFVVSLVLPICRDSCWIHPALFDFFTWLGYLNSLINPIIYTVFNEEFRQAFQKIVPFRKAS
In test [6] the target is T1, 5-hydroxytryptamine receptor 1B. The test is described as follows: The intrinsic activity was evaluated for its ability to inhibit forskolin-stimulated c-AMP formation mediated by cloned 5-hydroxytryptamine 1B receptor in CHO cell line. It is filed as functional, cell-based.

T1 sequence (P28222 whole entry): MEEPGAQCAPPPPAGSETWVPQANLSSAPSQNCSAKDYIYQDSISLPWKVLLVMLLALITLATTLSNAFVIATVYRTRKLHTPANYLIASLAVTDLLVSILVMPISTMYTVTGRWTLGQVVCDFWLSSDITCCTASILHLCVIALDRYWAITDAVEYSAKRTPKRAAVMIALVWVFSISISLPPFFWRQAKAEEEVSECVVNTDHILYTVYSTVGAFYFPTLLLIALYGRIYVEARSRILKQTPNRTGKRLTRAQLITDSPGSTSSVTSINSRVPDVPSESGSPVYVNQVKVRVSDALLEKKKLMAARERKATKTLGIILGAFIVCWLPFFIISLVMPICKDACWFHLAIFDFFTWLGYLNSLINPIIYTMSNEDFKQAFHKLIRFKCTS

Broadly, the Ki is the dissociation constant of the complex between target and ligand, obtained from inhibition or displacement. The EC50 is the midpoint of the concentration-response curve. High values mean a less potent agent, low ones a more potent agent. Regarding `c1ccc2c(N3CCNCC3)cccc2c1`, in test [1], the Ki was 10.6 nM. In test [2], this molecule came in with a concentration giving a half-maximal response (EC50) greater than 10000 nM.
For `CN1CCN(c2cccc3ccc(OCC(=O)Nc4ccc(NC(=O)COc5ccc6[nH]cc(CCN)c6c5)cc4)cc23)CC1`, the EC50 result in test [3] is “Partial agonist”. The Ki in test [1] is 0.7 nM; in test [4], 5.8 nM; in test [5], 0.5 nM.
On the same counts, the results for `CN1CCN(c2cccc3ccc(OCC(=O)N4CCN(C(=O)COc5ccc6cccc(N7CCN(C)CC7)c6c5)CC4)cc23)CC1` are “Partial agonist”, 2.56 nM, 4 nM and 1.24 nM.
With `CCCN(CCC)C1CCc2cccc(OCCCCCCOc3cccc4c3CC(N(CCC)CCC)CC4)c2C1` (configuration not stated), the values for the Ki in test [1], in test [4] and in test [5] were 6.4 nM, 6.8 nM and 3.9 nM, respectively. The molecule also showed an EC50 in test [6] of 50 nM.
Take `CN1CCN(c2cccc3ccc(OCCOc4ccc5cccc(N6CCN(C)CC6)c5c4)cc23)CC1`: the Ki in test [1] came out at 2.1 nM; in test [4], 14 nM; in test [5], 1.71 nM. Besides, in test [2], the EC50 is greater than 1000 nM.
Turning to `CN1CCN(c2cccc3ccc(OCCOc4ccc5[nH]cc(CCN)c5c4)cc23)CC1`, the EC50 result in test [3] was “Partial agonist”. The Ki in test [1] worked out at 0.76 nM; in test [4] it was 0.96 nM; in test [5], 0.4 nM.
